{
  "source": "patent US5861417A",
  "about": "“Heterocyclic substituted pyrrolidine amide derivatives” (Hoechst Marion Roussel, Inc., priority 1997, dated 1999)",
  "key": {"[1]": {"test": "Metabolic Stability in Human Liver S9", "type": "in vitro ADME", "conditions": "human liver S9, 10 μM initial, 37° C.", "protocol": "(§1) Evaluation of metabolism in human and guinea pig liver\n(§2) One skilled in the art can determine the metabolic stability for the compounds of the present invention by determining the rate of disappearance of the test compound in vitro in liver extracts. Metabolic stability is inversely related to the rate of metabolism which can be evaluated by determining the rate of disappearance of the test compounds during the initial linear phase of this assay.\n(§3) This method is carried out using either S9 or S10 liver supernatant obtained from either guinea pig or human liver. Guinea pig liver S9 can be purchased from Vitro Technologies, Baltimore, Md. and human liver S9 can be purchased from IIAM, Eaton Pa. Both guinea pig and human S10 supernatant can be prepared as follows: Combine weighed liver (fresh or stored at -80° C. until use) and 1.15% aqueous potassium chloride solution (10-15 mL) and homogenize using a PCU Poltron from Kinematics of Switzerland or equivalent. Combine the homogenate with 1.15% aqueous potassium chloride solution, sufficient so that 3 mL of solution (total) is used per […] of liver, and mix. Store the above homogenate on ice at all times prior to use and at -80° C. for long term storage.\n(§4) Centrifuge a 20 mL volume of the homogenate at 12,500 rpm (10,000×gravity) at 3° C. After 20 minutes, remove the cover of white lipid protein, if present, and transfer the supernatant to a clean centrifuge tube. Centrifuge the supernatant at 12,500 (10,000×gravity) at 3° C. for 20 minutes before transfer to a clean storage vessel to give the S10 supernatant. Store the S10 supernatant on ice or at -80° C. for long term storage.\n(§5) Prepare a stock solution of each test compound in methanol, such that 0.1 mL of the stock solution when spiked into 16 mL of incubation mixture yields an initial concentration of 10 μM of the test compound. Using this method the methanol content of the final incubation mixture will not exceed 1%.\n(§6) Prepare the incubation mixture by combining in an incubation beaker S9 or S10 supernatant (4 mL); an aqueous solution containing 1.1 mM NADP, […] (4 units/2 mL)(0.32 mL); and an aqueous 0.1M dipotassium monohydrogen phosphate solution (7.58 mL). Incubate the test compound by adding 0.1 mL of the stock solution of test compound to an incubation mixture, placed in a shaking water bath at 37° C.\n(§7) To determine the rate of disappearance of test compounds in this assay, remove triplicate aliquots (0.5 mL) from the incubation beaker at 1, 3, 5, 10, 15, 30, and 60 minutes. Freeze all aliquots in a hexane/dry-ice slurry to instantly deactivate the enzymes. Store at -70° C. until assayed. The concentration of test compound in each aliquot is determined by HPLC after preparation and as compared to a standard concentration of test compound, such preparations and determinations are well known and appreciated in the art. The rate of disappearance can be determined from the slope of the initial linear phase of this assay by graphing the change in concentration of test compound vs. time.\n(§8) Calibration standards for Compound A were prepared as follows: dissolve 10 mg of Compound A (free base) in methanol (10 mL) to give a 1 mg/mL stock solution. Use acetonitrile to dilute 1 mL of stock solution to 10 mL to give a 100 μg/mL spiking standard and serially dilute the 100 μg/mL solution with acetonitrile to give spiking standards having concentrations of 50, 25, 10, 5, 2.5, and 1.0 μg/mL. Calibration standards having concentrations of 10,000; 5,000; 2,500; 1,000; 500; 250; and 100 ng/mL are prepared in duplicated by adding 20 μL of each spiking standards to 0.2 mL of control S9 supernatant. Blanks and samples each receive 20μL of acetonitrile. […]"}, "[2]": {"test": "Metabolic Stability in Guinea Pig Liver S9", "type": "in vitro ADME", "conditions": "guinea pig liver S9, 10 μM initial, 37° C.", "protocol": "as §1, §2, §3, §4, §5, §6, §7, §8"}},
  "data": [
    {"compound": "COc1cc(C(=O)N2CCC(CCN3CCC(C(N)=O)(c4ccccc4)CC3)(c3ccc(Cl)c(Cl)c3)C2)cc(OC)c1OC.Cl", "note": "(single isomer, unassigned; (+)) [Compound C, (+)-1-(2-(3-(3,4-dichloro-phenyl)-1-(3,4,5-trimethoxy-benzoyl)-pyrrolidin-3-yl)-ethyl)-4-phenyl-piperidine-4-carboxylic acid amide hydrochloride]", "values": [
      {"measurement": "concentration", "setting": "[1]; 1 min", "result": 6200, "unit": "ng/mL"},
      {"measurement": "concentration", "setting": "[1]; 3 min", "result": 5600, "unit": "ng/mL"},
      {"measurement": "concentration", "setting": "[1]; 5 min", "result": 5900, "unit": "ng/mL"},
      {"measurement": "concentration", "setting": "[1]; 10 min", "result": 5200, "unit": "ng/mL"},
      {"measurement": "concentration", "setting": "[1]; 15 min", "result": 4500, "unit": "ng/mL"},
      {"measurement": "concentration", "setting": "[1]; 30 min", "result": 3200, "unit": "ng/mL"},
      {"measurement": "concentration", "setting": "[1]; 60 min", "result": 2500, "unit": "ng/mL"},
      {"measurement": "concentration", "setting": "[2]; 1 min", "result": 6300, "unit": "ng/mL"},
      {"measurement": "concentration", "setting": "[2]; 3 min", "result": 6000, "unit": "ng/mL"},
      {"measurement": "concentration", "setting": "[2]; 5 min", "result": 5300, "unit": "ng/mL"},
      {"measurement": "concentration", "setting": "[2]; 10 min", "result": 4800, "unit": "ng/mL"},
      {"measurement": "concentration", "setting": "[2]; 15 min", "result": 4000, "unit": "ng/mL"},
      {"measurement": "concentration", "setting": "[2]; 30 min", "result": 3800, "unit": "ng/mL"},
      {"measurement": "concentration", "setting": "[2]; 60 min", "result": 3500, "unit": "ng/mL"}
    ]}
  ]
}
